Test results: patent US6589985B2, “Carbamate compounds for use in preventing or treating movement disorders” (Ortho-McNeil Pharmaceutical, Inc., priority 2001, dated 2003)

Tests used:
essential tremor [1] = details: open-label report, essential tremor patients; cited from earlier work
essential tremor [2] = details: nine patients with essential tremor; cited from earlier work
harmaline-induced tremor = assay: Harmaline-induced tremors in rats; format: in vivo, Sprague-Dawley rats; details: for Tremor Score Median: harmaline 6 mg/kg i.p. 60 min later, observed 30 min, vehicle median 6.00, p<0.01 vs vehicle
Text: Harmaline-induced tremor in rats is a commonly accepted animal model that is predictive of essential tremor and related movement disorders in human (Miwa H, et. al., Differential expression of c-Fos following administration of two tremorgenic agents: harmaline and oxotremorine, NeuroReport, 2000, 11 (11), 2385-2390; Stanford J A and Fowler S C, At low doses, harmaline increases forelimb tremor in the rat, Neurosci. Lett., 1998, 241 (1), 41-44; Sinton C M, The effectiveness of different isomers of octanol as blockers of harmaline-induced tremor, Pfluegers Arch., 1989, 414 (1), 31-6).
An enantiomer of Formula (Ib) was evaluated for efficacy in treating essential tremor and related movement disorders with doses up to 30 mg/kg. The enantiomer of Formula (Ib) or vehicle (0.5% hydroxypropyl methylcellulose) was administered orally by gavage in a dose volume equivalent to 5 mL/kg to Sprague-Dawley rats (135 to 275 g). Harmaline (6 mg/kg in volume of 5 mL/kg, i.p.) was administered 60 min thereafter. Immediately after the harmaline administration, rats were placed individually in a blinded fashion in plastic cages on wood-chip bedding and observed for 30 minutes. Appearance of tremors was scored using a nine-item checklist. The checklist includes scoring for: tremors at rest, tremors during locomotion, intermittent tremors, continuous tremors, tremors provoked by tail-restraint, generalized tremors (head, body and tail), tremors of the head only, tremors of the body only and tremors of the tail only. Signs observed in rats treated with vehicle or test compound are compared by ranking tremor quality and severity.
Tremor provoked following tail-restraint was assigned a score =1. Tremors that appear continuously were assigned a score =2, while tremors that appear intermittently were assigned a score =1. The appearance of generalized tremors were assigned a score =2, while a score =1 was assigned to tremor that involves only the head, body or tail of the rat. The severity of tremor is scored subjectively as mild in intensity or as moderate or marked. […]

SMILES: NCC1(CC(=O)O)CCCCC1 [gabapentin, Gabapentin]
- effect on tremor (essential tremor [1]): reduced tremor in five patients

SMILES: CC1(C)O[C@@H]2[C@@H](CO[C@@]3(COS(N)(=O)=O)OC(C)(C)O[C@@H]23)O1 [Topiramate]
- patient self-rating after topiramate therapy (essential tremor [2]): Eight patients rated themselves as better and with less disability

SMILES: NC(=O)OC[C@@H](O)c1ccccc1Cl [Formula (Ib)]
- Tremor Score Median (harmaline-induced tremor; 20 mg/kg p.o.): 2.00
- Tremor Score Median (harmaline-induced tremor; 30 mg/kg p.o.): 1.20
- reduction in the tremor score in drug-treated groups compared to the vehicle-treated group (harmaline-induced tremor; Kruskal-Wallis nonparametric one-way method, rats, p.o.): significant
